According to US5506217A, “Phosphonates as anti-cancer agents” (The University of British Columbia, priority 1994, dated 1996):

What was measured:
[1] = test system: B-16/F10 melanoma cells; experiment: B-16/F10 melanoma metastasis in C57BL/6 mice; format: in vivo; details: 10 mg/kg IV (day 0, 4 and 8)
Protocol: Highly metastatic B-16/F10 melanoma cells were injected into the tail veins of female C57BL/6 mice (1×10^5 cells per mouse). Treatment of one group of mice with the phosphonate compound of the above formula (compound VIII), dissolved into 0.5mL ethanol, 0.5 mL cremaphor and 9.0 mL phosphate buffered saline, began three days after the tumor cells were injected. lntramuscular injections of 0.2 mL of the phosphonate emulsion (10 mg/kg/day) were given for 5 days per week for 2 weeks. A second group of mice were treated with Adriamycin (10 mg/kg given intravenously on days 0, 4 and 8) as a known anti-cancer drug control group, while a third group of mice received the vehicle emulsion alone. The mice were examined every day for general health, behaviour and body weight. Counts of metastatic melanomic tumor colonies found in the lungs, general observations of metastasis to distant organs and examination of organs (liver, kidneys, lungs and spleen) were taken at autopsy 4 weeks after treatment.

[2] = test system: WEHI-3B tumor cells; experiment: colonogenic cell survival assay; format: cell-based; details: Mus musculus, WEHI3B, 120 h, methyl cellulose medium, five days, read-out: WEHI-3B Colonies Formed (Percentage of Control)
Protocol: Inhibition of colony formation in soft agar medium (colonogenic cell survival assay) is a more rigorous and direct measurement of cell kill or growth inhibition, and reflects the anti-cancer activity of the test compound. Briefly, tumor cells were cultured in petri dishes in methylcellulose, with or without a phosphonate test compound, and the number of colonies formed during a 5-day incubation period were counted.
Table 17 tabulates data obtained with two differrent phosphonate analogs using a colonogenic assay. Colonogenic assay is one of the most trusted tests for determination of effectiveness of an anti-cancer agent. The test is based on the formation of tumor colonies in vitro in a methyl cellulose or soft agar medium. The following results were obtained with the formation of colonies in methyl cellulose medium after five days in the presence or absence of four phosphonate analogs, two with a thioalkyl chain and two with an alkyloxy chain.

[3] = test system: WEHI-3B tumor cells; experiment: 3H-thymidine incorporation assay; format: cell-based; details: Mus musculus, WEHI3B, percent [3H]thymidine uptake, WEHI-3B, read-out: Cell Viability (% of Control); for viability at 12.5 µM: 12.50 μM
Protocol: Experiments were performed using a number of different rumor cell lines. Tumor cells were cultured in RPMI-1640 medium supplemented with 10% fetal bovine serum, penicillin (50 units/mL), streptomycin (50 μg/mL) and mercaptoethanol (5 μg/mL) in an atmosphere of 5% CO2. The cells were passaged weekly by serial 1/10 to 1/10,000 dilutions. The cell viability and growth were constantly monitored by staining with trypan blue exclusion dye or the incorporation of tritiated thymidine.
Inhibition of ^3 H-thymidine incorporation into the DNA of cells by a test compound is an indirect measurement of cell kill or growth inhibition, and reflects the anti-cancer activity of the compound.
Tumor cells (2×104 ^4 cells/well) were placed in 200 μL of medium in 96-well plastic microtiter plates; a further 5 μL of medium either with or without phosphonate was added. […] The cells were then harvested using a Brandel cell harvester (model M-12) and collected on Whatman glass microfilters. The radioactivity associated with the filters was quantified in a liquid scintillation counter, and the amount of ^3 H-thymidine incorporated into tumor cells treated with the phosphonate compound was calculated as a percentage of the amount of ^3 H-thymidine incorporated into untreated tumor cells.
The biological activities of 4-hexadecylthio-3(S ) -3-methoxybutane-l-phosponocholine and its enantiomer 4-hexadecylthio-3(R)-3-methoxybutane-1-phosphonocholine were studied on several cancer cell lines. […] The cell viability, was determined as percent[^3 H]thymidine uptake into the cell DNA. The following results are mean of five samples ± S.D.

| Structure (SMILES) | melanomic tumor colonies in the lungs (in words) [1] | Melanomic tumor colonies found in the lungs at autopsy ([1]; Mouse 1) | Melanomic tumor colonies found in the lungs at autopsy ([1]; Mouse 2) | Melanomic tumor colonies found in the lungs at autopsy ([1]; Mouse 3) | Melanomic tumor colonies found in the lungs at autopsy ([1]; Mouse 4) | Melanomic tumor colonies found in the lungs at autopsy ([1]; Mouse 5) | Melanomic tumor colonies found in the lungs at autopsy ([1]; Mouse 6) | activity at 0.6 µM [2] [%] | activity at 1.25 µM [2] [%] | activity at 2.5 µM [2] [%] | activity at 5 µM [2] [%] | activity at 10 µM [2] [%] | activity at 20 µM [2] [%] | viability at 6.25 µM [3] [%] | viability at 12.5 µM [3] [%] | viability at 25 µM [3] [%] | viability at 50 µM [3] [%] |
| --- | --- | --- | --- | --- | --- | --- | --- | --- | --- | --- | --- | --- | --- | --- | --- | --- | --- |
| COc1cccc2c1C(=O)c1c(O)c3c(c(O)c1C2=O)C[C@@](O)(C(=O)CO)C[C@@H]3O[C@H]1C[C@H](N)[C@H](O)[C@H](C)O1 [Adriamycin, reference compound] | none of the Adriamycin-treated mice developed melanomic tumor colonies in their lungs | 0 | 0 | 0 | 0 | 0 | 0 | – | – | – | – | – | – | – | – | – | – |
| CCCCCCCCCCCCCCCCSC[C@H](CCP(=O)([O-])OCC[N+](C)(C)C)OC [Compound 1, 4hexadecylthio-3-O-methyl-3(S)-butane-phosphonocholine] | – | – | – | – | – | – | – | 88 | 95 | 55 | 52 | 22 | 9 | 55 ± 0.5 | 31 ± 3.4 | 21 ± 0.2 | 2 ± 1.4 |
| CCCCCCCCCCCCCCCCSC[C@@H](CCP(=O)([O-])OCC[N+](C)(C)C)OC [Compound 2, 4hexadecylthio-3-O-methyl-3(R)-butane-phosphonocholine] | – | – | – | – | – | – | – | 54 | 44 | 36 | 21 | 5 | 0 | 61 ± 0.4 | 24 ± 2.7 | 22 ± 4.6 | 12 ± 1.2 |
